{"source": "paper PMC2652713", "about": "“Molecular Blocking of CD23 Supports Its Role in the Pathogenesis of Arthritis” (PLoS ONE, 2009)", "key": {"[1]": {"system": "human CD23", "test": "Flow cytometry, inhibition of IgE/anti-IgE-FITC binding to human CD23+ macrophages", "details": "p30A 10 µg/ml pre-incubation, IgE 10 µg/ml, anti-IgE-FITC 1 µg/ml", "description": "(§1) Figure 1 Specific blockade of CD23 reactivity by p30A. Flow cytometry analysis showing the inhibition of (A) anti-CD23-FITC (20 µg/ml) or (B) IgE (10 µg/ml)/anti-IgE-FITC (1 µg/ml) binding to CD23^+ human PBL-derived macrophages (red lines) or following their pre-incubation with p30A peptides (10 µg/ml) (blue lines). (C) CD23 western blot was performed on total protein extract from à CD23^+ B-cell line. The detection with CD23-McAb followed the pre-incubation of the blot with or without p30A (10 µg/ml). Similar protein quantity (50 µg) was used for each western blot condition."}, "[2]": {"system": "iNOS mRNA in human CD23+ monocyte-derived macrophages", "test": "iNOS mRNA expression (RT-PCR) in CD23-activated human macrophages", "assay_type": "cell-based", "details": "CD23-McAb 20 µg/ml, 1 h pre-incubation with 10 µg/ml peptide, versus HPRT mRNA", "description": "Figure 2 Inhibition of CD23-mediated activation of iNOS pathway in human macrophages by p30A. Human CD23^+ monocyte-derived macrophages were incubated with cross-linking CD23-McAb (20 µg/ml) alone or following 1 h pre-incubation with 10 µg/ml of various peptides. […] Expression of iNOS mRNA was compared to HPRT mRNA levels. (B) Inhibition of NO generation from human activated macrophages by synthetic peptides. Cell supernatants were collected 72 h following cell cultures and levels of nitrites were determined. […] Results are expressed as mean of 3 distinct donor cell preparations (SEM<20%). (C) Inducible NOS-mediated NO generation in human macrophages is decreased following pre-incubation with p30A or L-NIL prior to CD23-mediated activation. Results are expressed as mean±s.d. of 7 distinct donor cell preparations.\nMonocytes or macrophages were activated through CD23 pathway: while monocytes/macrophages from RA patients express CD23, monocytes from healthy donors must be pre-activated to express surface CD23 as described. […] Cells supernatants were then analyzed for their nitric oxide content (see below) and for the presence of cytokines: levels of TNF-α and IL-6 were determined in duplicates for each sample by a specific ELISA (R&D, Paris, France) while levels of IL-1β, IL-8 and IL-10 was determined using FlowCytomix Human Th1/Th2 Kit as recommended (Bender Medsystems, Vienna, Austria). […]"}, "[3]": {"system": "rat peritoneal macrophages", "test": "NO generation by IgE/DNP-activated rat peritoneal macrophages", "assay_type": "cell-based", "description": "Figure 6 Inhibition of in vitro and in vivo inflammatory responses in rats by p30A peptide. (A) Rat peritoneal macrophages were activated via CD23 antigens with/without p30A, L-NIL or pCtl. Cell supernatants were collected 48 h later and nitrite levels were quantified. Values are mean±s.d. of cells from 3 different rats. (B) Cumulative clinical score/rat obtained following 50 days post-immunization in all groups. AIA rats were treated either after or before (d0) the onset of symptoms. Treatment consisted of p30A, hydrocortisone (HC, 30 mg/rat)) or pCtl (100 mg/rat). Shown are means of cumulative score/rat±s.d. from 5 (HC) or 8 rats (other conditions). (C) Evolution of arthritis severity scores of adjuvant-induced arthritis (AIA) in rats treated with intracutaneous p30A or pCtl (100 mg/rat) or hydrocortisone (after the onset of clinical signs as illustrated by arrows (means from 8 rats, s.e.m.<20%). (D) Histopathologic analysis confirm p30A ability to decrease all components of AIA lesions: pannus formation and inflammation of the synovium (P), deformity of joint and bones (asterix), bone remodeling and destruction (arrowhead), bone neoformation (arrows) and cartilage destruction.\nCulture supernatants (72 h) were assayed for the stable end-product of NO, NO2 ^− using the Griess reaction modified as detailed elsewhere. […]"}, "[4]": {"system": "soluble and surface CD23", "test": "Interaction of p30A with soluble and surface CD23 (inferred)", "assay_type": "binding, human", "description": "as §1\nAs control (pCtl), we have used synthetic heptapeptide with unrelated sequence (SFNYNYA).\nTotal cellular proteins were isolated from CD23^+, ADAM B-cell line in cell lysis buffer (10 mM Tris pH 8.0, 150 mM NaCl, 5 mM EDTA, 1% Triton X-100, 0.05% SDS, 10 mM Sodium Fluoride, 1 mM Sodium Orthovanadate, 5 µM Molibdic Acid) and a mixture of protease inhibitors (all from Sigma Aldrich, Saint Quentin Fallavier, France). Protein concentration was determined using the Bradford assay (Bio Rad, Hemel Hempstead, UK). Protein samples (50 µg total protein) were subjected to SDS-PAGE using a 12% resolving gel. […] Immunoreactive bands (CD23 and Bcl2) were detected using the FluorChem 8800 (Alpha Innotech, San Leandro, USA) and semi-quantified by densitometry using AlphaEase FC (Alpha Innotech)."}, "[5]": {"system": "CD23"}}, "note": "Entries after “also recorded” stand apart in the source; their conditions may differ.", "data": [{"substance": "FHENWPS [p30A]", "values": [{"measurement": "block of IgE/anti-IgE-FITC binding", "setting": "[1]", "result": "block, on the one hand, the binding of IgE/anti-IgE-FITC to human CD23^+ macrophages"}, {"measurement": "iNOS-encoding mRNA level", "setting": "[2]", "result": "reduced the levels of inducible nitric oxide synthase (iNOS)-encoding mRNA; also recorded: decreased in cells pre-incubated with p30A"}, {"measurement": "reversal of IgE/DNP activation", "setting": "[3]; rat macrophages ex-vivo", "result": "able to reverse the IgE/DNP activation of rat macrophages ex-vivo"}, {"measurement": "CD23-mediated induction of NO generation", "setting": "[3]; rat peritoneal macrophages, IgE/DNP, peptide 1 h prior, supernatants at 48 h, 3 rats", "result": "significant decrease in CD23-mediated induction of NO generation"}, {"measurement": "binding to human CD23", "setting": "[4]", "result": "specifically bound human and rat CD23"}, {"measurement": "affinity of interaction with soluble and surface CD23 relative to McAb or IgE-anti-IgE", "setting": "[4]; authors' inference from Figure 1A-C, Kd not given", "result": "interacts with both soluble and surface CD23 forms with a higher affinity than specific McAb or IgE-anti-IgE immune complexes"}, {"measurement": "side agonistic effect", "setting": "[5]", "result": "absence of side agonistic effect"}]}]}
